Among the data in patent publication US4315935A, “N,N'-Bis[substituted-1,2,3,4-tetrahydroisoquinolinolyl]disulfonylimides and antiallergic compositions and method of use” (SmithKline Corporation, priority 1980, dated 1982) are inhibition values, retold here.

This experiment relates to SRS-A. Nature of the experiment: inhibition of SRS-A induced contraction of guinea pig ileum. As to conditions: Cavia porcellus, 0.25 h; for inhibition at 5 µM: read-out: […], compound concentration 5 × 10^-6 M, SRS-A agonist 40 μg/ml, read-out: PERCENTAGE ANTAGONISM; for inhibition at 1 µM: read-out: […], compound concentration 1 × 10^-6 M, SRS-A agonist 40 μg/ml, read-out: PERCENTAGE ANTAGONISM
It counts as cell-based. As to the method: The SRS-A antagonist activity of the compounds of this invention is measured by the ability of the active medicament to inhibit SRS-A induced contraction of guinea pig ileum. In this test system, sections of ileum are resected from guinea pigs and placed in 5 ml. tissue baths containing a modified Tyrode's solution. One end of the tissue is fixed to a glass tissue holder, the other is connected to a force-displacement transducer and the tissue is placed under a tension of 500 mg. Isometric tissue contractions are recorded on a six channel polygraph. Baths are constantly aerated with 95% O2 -5% CO2. After a 20 minute stabilization period a concentration of the appropriate agonist which provides a contraction height of 60-80% of the maximum obtainable to that agonist (as determined from full sequential concentration--response curves in separate experiments) is added to the tissue bath and the response recorded. The procedure is repeated until reproducible responses are obtained. For most agonists, two applications in rapid succession, followed 15 minutes later by a third, is sufficient to establish reproducibility. Experimental tissues are incubated with the selected concentration of the test compounds for 15 minutes. Experimental and control tissues are subjected to 5 bath changes during the incubation interval. Changes in bath fluid during the incubation period are helpful in insuring the reproducibility of tissue responses to the agonist. The same concentration of the agonist is reapplied in the presence of the test compound and the response registered and compared with controls. Percent inhibition produced by the test compound is calculated by substracting the mean percentage change in control tissue from the means percentage change in tissues exposed to the test compound. Additional compounds are then evaluated as long as the tissue remains reproducibly responsive to the agonist. Six tissues obtained from 6 animals are used simultaneously--3 controls and 3 experimental.
The compounds of this invention tested at concentrations of from 5×10^-5 M to 1×10^-6 M produce marked antagonism of partially purified slow reacting substance of anaphylaxis obtained from guinea pig lung. The agonist is employed at a concentration of 40 μg/ml. Representative of this effect, tabulated below are a number of the claimed compounds and percentage antagonism of SRS-A at various compound concentrations.

Molecules are shown by their SMILES.

Turning to `O=S(=O)(Nc1cccc(Cl)c1)c1ccc(Cl)c2c1CCN(S(=O)(=O)NS(=O)(=O)N1CCc3c(S(=O)(=O)Nc4cccc(Cl)c4)ccc(Cl)c3C1)C2` [Compound 30, N,N'-bis[8-chloro-5-(3-chlorobenzeneaminosulfonyl)-1,2,3,4-tetrahydroisoquinolyl]disulfonylimide], the inhibition at 5 µM came to 63%.

For `O=S(=O)(Nc1cccc(Cl)c1)c1c(Cl)ccc2c1CN(S(=O)(=O)NS(=O)(=O)N1CCc3ccc(Cl)c(S(=O)(=O)Nc4cccc(Cl)c4)c3C1)CC2` [Compound 23, N,N'-Bis[7-Chloro-8-(3-Chlorobenzeneaminosulfonyl)-1,2,3,4-Tetrahydroisoquinolyl]disulfonylimide], the inhibition at 5 µM turned out to be 48%.

Take `O=S(=O)(Nc1ccc(C(F)(F)F)cc1)c1ccc2c(c1)CN(S(=O)(=O)NS(=O)(=O)N1CCc3ccc(S(=O)(=O)Nc4ccc(C(F)(F)F)cc4)cc3C1)CC2` [Compound 8]: the inhibition at 1 µM was determined as 49% and the inhibition at 5 µM was found to be 57%.

On to `CN(c1ccc(Cl)cc1)S(=O)(=O)c1ccc2c(c1)CN(S(=O)(=O)NS(=O)(=O)N1CCc3ccc(S(=O)(=O)N(C)c4ccc(Cl)cc4)cc3C1)CC2` [Compound 15], for which the inhibition at 5 µM was 57.3%.

On to `O=S(=O)(Nc1ccc(Cl)c(C(F)(F)F)c1)c1ccc2c(c1)CN(S(=O)(=O)NS(=O)(=O)N1CCc3ccc(S(=O)(=O)Nc4ccc(Cl)c(C(F)(F)F)c4)cc3C1)CC2` [Compound 12], for which the inhibition at 1 µM came to 41% and the inhibition at 5 µM is 91.5%.

Turning to `O=S(=O)(Nc1ccc(Cl)c(Cl)c1)c1ccc2c(c1)CN(S(=O)(=O)NS(=O)(=O)N1CCc3ccc(S(=O)(=O)Nc4ccc(Cl)c(Cl)c4)cc3C1)CC2` [Compound 11], the inhibition at 1 µM is 49% and the inhibition at 5 µM was found to be 56%.

On to `O=S(=O)(Nc1cccc(Br)c1)c1ccc2c(c1)CN(S(=O)(=O)NS(=O)(=O)N1CCc3ccc(S(=O)(=O)Nc4cccc(Br)c4)cc3C1)CC2` [Compound 5], for which the inhibition at 1 µM stood at 54% and the inhibition at 5 µM was 68%.

As for `O=S(=O)(Nc1ccccc1)c1ccc2c(c1)CN(S(=O)(=O)NS(=O)(=O)N1CCc3ccc(S(=O)(=O)Nc4ccccc4)cc3C1)CC2` [Compound 2], the inhibition at 5 µM was 42.3%.

`O=S(=O)(Nc1ccccc1Cl)c1ccc2c(c1)CN(S(=O)(=O)NS(=O)(=O)N1CCc3ccc(S(=O)(=O)Nc4ccccc4Cl)cc3C1)CC2` [Compound 3]: the inhibition at 5 µM stood at 24.8%.

On to `Cc1ccc(NS(=O)(=O)c2ccc3c(c2)CN(S(=O)(=O)NS(=O)(=O)N2CCc4ccc(S(=O)(=O)Nc5ccc(C)c(C)c5)cc4C2)CC3)cc1C` [Compound 13], for which the inhibition at 5 µM was 62%.

Regarding `O=S(=O)(Nc1ccc(Cl)cc1)c1ccc2c(c1)CN(S(=O)(=O)NS(=O)(=O)N1CCc3ccc(S(=O)(=O)Nc4ccc(Cl)cc4)cc3C1)CC2` [Compound 4], the inhibition at 5 µM was 51.2%.

As to `O=S(=O)(Nc1ccc(Br)cc1)c1ccc2c(c1)CN(S(=O)(=O)NS(=O)(=O)N1CCc3ccc(S(=O)(=O)Nc4ccc(Br)cc4)cc3C1)CC2` [Compound 6], the inhibition at 5 µM stood at 42.2%.

As for `O=S(=O)(Nc1cccc(Cl)c1)c1ccc2c(c1)CN(S(=O)(=O)NS(=O)(=O)N1CCc3ccc(S(=O)(=O)Nc4cccc(Cl)c4)cc3C1)CC2` [Compound 1, N,N'-bis[7-(3-chlorobenzeneaminosulfonyl)-1,2,3,4-tetrahydroisoquinolyl]disulfonylimide], the inhibition at 5 µM amounted to 67.5%.

Consider `Cc1ccc(NS(=O)(=O)c2ccc3c(c2)CN(S(=O)(=O)NS(=O)(=O)N2CCc4ccc(S(=O)(=O)Nc5ccc(C)c(Cl)c5)cc4C2)CC3)cc1Cl` [Compound 14], for which the inhibition at 5 µM amounted to 84%.

Consider `O=S(=O)(Nc1cccc(C(F)(F)F)c1)c1ccc2c(c1)CN(S(=O)(=O)NS(=O)(=O)N1CCc3ccc(S(=O)(=O)Nc4cccc(C(F)(F)F)c4)cc3C1)CC2` [Compound 7], for which the inhibition at 5 µM was 65%.

As to `O=[N+]([O-])c1cccc(NS(=O)(=O)c2ccc3c(c2)CN(S(=O)(=O)NS(=O)(=O)N2CCc4ccc(S(=O)(=O)Nc5cccc([N+](=O)[O-])c5)cc4C2)CC3)c1` [Compound 9], the inhibition at 5 µM was 36%.
